Source: ChEMBL document CHEMBL4842392, “Targeting KRAS Mutant Protein Inhibitor for Potential Treatment in Cancer” (ACS Med Chem Lett, 2021)
Several values for one entry are separate records, joined by “and”; a condition that tells them apart may be missing. Equal entries are not always repeated.

Legend:
[1] = target: T1, GTPase KRas (Homo sapiens, UniProt P01116, G12C); experiment: Inhibition of GDP-loaded His-tagged KRAS G12C mutant (2 to 182 residues) (unknown origin) assessed as inhibition of SOS1-catalyzed nucleotide exchange preincubated for 1 hr followed by SOS1 addition measured after 1 hr by TR-FRET assay
[2] = tested on: NCI-H358; experiment: Antiproliferative activity against human NCI-H358 cells assessed as inhibition of cell proliferation incubated for 6 days by CCK8 assay; assay type: functional, cell-based
[3] = target: T1, GTPase KRas; experiment: Inhibition of KRAS G12C mutant in human NCI-H358 cells assessed as reduction in ERK phosphorylation incubated for 2 hrs by HTRF assay; assay type: cell-based
[4] = Oral bioavailability in Beagle dog at 10 mg/kg measured up to 24 hrs by LC-MS analysis; assay type: ADME, organism-based, Canis lupus familiaris; conditions: in vivo

| SMILES | IC50 [1] | IC50 ([2]; Homo sapiens, NCI-H358, 144 h) | IC50 [3] | F ([4]; 10 mg/kg, 24 h) | IC50 ([2]; nci-h358) | bioavailability ([4]; beagle) |
| --- | --- | --- | --- | --- | --- | --- |
| C=CC(=O)N1CCN(c2c(C#N)c(=O)n(-c3c(C(C)C)ncnc3C(C)C)c3nc(-c4c(N)c(Cl)cc(Cl)c4F)c(Cl)cc23)CC1 | 4.74 nM | 32 nM | 18.5 nM | – | – | – |
| C=CC(=O)N1CCN(c2c(C#N)c(=O)n(-c3c(C)ccnc3C(C)C)c3nc(-c4c(N)c(Cl)cc(Cl)c4F)c(Cl)cc23)C[C@@H]1CC#N | 6.66 nM | – | 12.3 nM | – | – | – |
| C=CC(=O)N1CCN(c2c(C#N)c(=O)n(-c3c(C)ccnc3C(C)C)c3nc(-c4c(N)c(Cl)cc(Cl)c4F)c(Cl)cc23)CC1 | 1.95 nM and 1.54 nM | 27.6 nM | 10.4 nM and 11.7 nM | 98.5% and 63.1% | 14.5 nM | – |
| C=CC(=O)N1CCN(c2c(C#N)c(=O)n(-c3c(C(C)C)ncnc3C(C)C)c3nc(-c4c(N)cccc4F)c(Cl)cc23)CC1 | – | – | 20.1 nM | – | – | – |
| C=CC(=O)N1CCN(c2c(C#N)c(=O)n(-c3c(C)ccnc3C(C)C)c3nc(-c4c(N)c(Cl)cc(Cl)c4F)c(Cl)cc23)CC1CC#N (centres undefined) | 5.19 nM | 35.6 nM | 14.9 nM | – | – | – |
| C=CC(=O)N1CCN(c2c(C#N)c(=O)n(-c3c(C)ccnc3C(C)C)c3nc(-c4c(N)c(Cl)cc(Cl)c4F)c(Cl)cc23)C[C@H]1C | 2.54 nM | 25.4 nM | 28.8 nM | – | – | 70.3% |
| C=CC(=O)N1[C@H](C)CN(c2c(C#N)c(=O)n(-c3c(C)ccnc3C(C)C)c3nc(-c4c(N)c(Cl)cc(Cl)c4F)c(Cl)cc23)C[C@@H]1C | 2.83 nM | 17.5 nM | 38.1 nM | – | – | – |
| C=CC(=O)N1CCN(c2c(C#N)c(=O)n(-c3c(C)ccnc3C(C)C)c3nc(-c4ccccc4F)c(Cl)cc23)CC1 | 4.4 nM | 52.1 nM | 29.9 nM | – | – | – |
